According to ChEMBL document CHEMBL1136113, “Synthesis and inhibitory activity of ubiquinone-acetogenin hybrid inhibitor with bovine mitochondrial complex I” (Bioorg Med Chem Lett, 2003):

These compounds were tested against Mitochondrial complex I; NADH oxidoreductase (Bos taurus, UniProt P25708+P52505) (assay: Inhibition of complex I activity was determined by NADH oxidase assay using bovine heart submitochondrial particles.).
Chain of Mitochondrial complex I; NADH oxidoreductase (P25708 21-464 limits assumed, other chains not shown): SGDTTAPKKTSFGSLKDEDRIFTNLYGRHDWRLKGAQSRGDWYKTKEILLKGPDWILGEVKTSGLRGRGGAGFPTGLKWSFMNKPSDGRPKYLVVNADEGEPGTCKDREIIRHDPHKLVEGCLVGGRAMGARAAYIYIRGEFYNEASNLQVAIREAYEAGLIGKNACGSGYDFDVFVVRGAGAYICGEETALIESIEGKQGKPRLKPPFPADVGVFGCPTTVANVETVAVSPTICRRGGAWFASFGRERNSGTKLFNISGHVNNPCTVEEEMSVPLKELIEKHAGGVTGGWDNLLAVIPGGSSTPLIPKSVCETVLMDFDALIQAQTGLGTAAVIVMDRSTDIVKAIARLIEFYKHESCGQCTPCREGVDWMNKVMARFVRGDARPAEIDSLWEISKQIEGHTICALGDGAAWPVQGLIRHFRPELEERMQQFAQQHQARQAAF
Assay type: protein-complex assay
Work on `CCCCCCCCCC[C@@H](O)[C@H]1CC[C@H]([C@H]2CC[C@H]([C@H](O)CCCCCCCCCCCCc3c(C)c(OC)c(OC)c(OC)c3OC)O2)O1` yielded an IC50 of 280 nM.
For `CCCCC[C@@H](O)[C@H]1CC[C@H]([C@H]2CC[C@H]([C@H](O)CCCCC)O2)O1`, the IC50 was 4500 nM.
In the case of `CCCCCCCCCC[C@@H](O)[C@H]1CC[C@H]([C@H]2CC[C@H]([C@H](O)CCCCCCCCCCCCC3=C(C)C(=O)C(OC)=C(OC)C3=O)O2)O1`, the IC50 is reported as 1.2 nM.
In the case of `CCCCCCCCCC[C@@H](O)[C@@H]1CC[C@@H]([C@@H]2CC[C@@H]([C@H](O)CCCCCCCCCC(O)CC3=CC(C)OC3=O)O2)O1` (stereo not given in full) [BULLATACIN], the IC50 is reported as 0.9 nM.
In the case of `CCCCCCCCCC[C@@H](O)[C@H]1CC[C@H]([C@H]2CC[C@H]([C@H](O)CCCCCCCCCCCCC3=C[C@H](C)OC3=O)O2)O1` [ISODESAACETYLUVARICIN], the IC50 is reported as 0.9 nM.
